Common to all, as to test: growth of human tumour cells (NCI), 48 h
In test [1] the test system is UACC-257 melanoma.
Test [2] relates to HCT-15 colon.
The test system of test [3] is COLO 205 colon.
Test [4] concerns SF-539 CNS.
The subject of test [5] is RPMI-8226 leukemia.
The test system of test [6] is KM12 colon.
Test [7] has as its system SF-268 CNS.
Test [8] concerns K-562 leukemia.
Test [9] concerns NCI-H23 lung.
In test [10] the test system is SW-620 colon.

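A five-concentration, 48-hour dose response in 96-well plates underlies each endpoint, interpolated linearly between surrounding concentrations. Abbreviation: GI50, concentration required for 50% inhibition of growth. TGI marks complete inhibition of growth.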

TGI and GI50 data for eight compounds are collected here from PubChem BioAssay (NCI).

Turning to `COc1ccccc1/C=C/C(=O)c1sc(-c2cccnc2)nc1C`, the TGI in test [1], in test [2], in [3], in [4], in test [5] and in test [6] was more than 100 µM each time. Besides, the TGI in test [7], in test [8], in test [9] and in test [10] was more than 100 µM in each case.

Take `CCN1C(C)=NC2C(=O)c3ccccc3C(=O)C21` (stereo unspecified): the TGI in [1], in [2], in test [3], in test [4], in test [5] and in [7] was more than 100 µM each time. In addition, the TGI in test [8], in [9] and in test [10] was more than 100 µM in each case.

Consider `COc1ccc(-c2cc(-c3ccc(Nc4nc(Nc5ccc(Cl)cc5)nc(Nc5ccc(Cl)cc5)n4)cc3)no2)cc1`, for which the GI50 was 33.2 µM in test [1]; 12.4 µM in [2]; 11.6 µM in [3]; 17.2 µM in test [4]; 13.1 µM in [5]; 7.83 µM in test [6]. Further, the GI50 in [7] was 9.3 µM; in test [8], 2.96 µM; in [9] it was 11.7 µM; in test [10] it was 11.3 µM. For the same compound, the TGI in test [1] was more than 100 µM; in test [2], more than 100 µM; in test [3] it was 29.7 µM; in test [4], 57.8 µM; in test [5] it was 48.2 µM; in test [6], 30.3 µM. Further, the TGI in test [7] turned out to be 38.2 µM; in [8], 18.5 µM; in [9], 28.1 µM; in test [10], 25.6 µM.

For the compound `O=C1C2CC3C(CC2C(=O)[N]1[Sn]([c]1ccccc1)([c]1ccccc1)[c]1ccccc1)C1(Cl)C(Cl)=C(Cl)C3(Cl)C1(Cl)Cl` (stereo unspecified), the GI50 in test [1] is 0.144 µM; in [2] it was 0.054 µM; in [3], 0.152 µM; in [4] it was 0.179 µM; in test [5], 0.106 µM; in test [6] it was 0.13 µM. In addition, the GI50 was 0.111 µM in [7], 0.0492 µM in test [8], 0.15 µM in test [9] and 0.0636 µM in test [10]. Further, the TGI in test [1] was found to be 0.324 µM; in test [2], 0.209 µM; in [3], 0.33 µM; in test [4], 0.369 µM; in test [5], 0.53 µM; in test [6] it was 0.29 µM. Besides, the TGI in test [7] was determined as 0.286 µM; in test [8] it was 0.754 µM; in test [9], 0.388 µM; in test [10] it was 0.216 µM.

As for `COC(=O)C1=CC(O)CCC1c1ccc(OC)cc1` (stereo unspecified), the TGI in test [1], in [2], in test [3], in test [4], in [5] and in test [6] was more than 100 µM in each case. Further, the TGI in [7], in test [8], in test [9] and in test [10] was more than 100 µM each time.

Regarding `C[C@H]1CCC/C=C/[C@@H]2C[C@H](O)C[C@H]2[C@H](O)[C@H](S(=O)c2ccc(O)cc2)CC(=O)O1` (stereo partly specified), the GI50 in test [1] is 0.0222 µM; in test [2] it was 0.0443 µM; in [3] it was 0.0183 µM; in [4], less than 0.0157 µM; in [5], 0.0922 µM; in [6], less than 0.0146 µM. Moreover, the GI50 is 0.0994 µM in test [8], 0.0273 µM in test [9] and 0.0506 µM in test [10]. Further, the TGI is 1.69 µM in [2]; 0.0544 µM in [3]; more than 36.4 µM in [4]; 2.52 µM in test [5]; more than 100 µM in test [7]; more than 100 µM in test [8]. The values for the TGI in [9] and in test [10] were 0.143 µM and more than 100 µM, respectively.

As for `Cc1cc(NC(=O)c2ccc(NS(=O)(=O)CCO)cc2N2CCC3(CC2)CC3)nc(N2CCC(F)(F)CC2)n1`, the GI50 in [1] was 16.8 µM; in test [2], 4.71 µM; in test [3], 11 µM; in [4], 0.0776 µM; in [5], 9.74 µM; in [6], 1.7 µM. Moreover, the GI50 in [7] is 13.1 µM; in [8] it was 3.59 µM; in [9], 12.6 µM; in test [10], 13.1 µM. Also, the TGI in test [1] came out at 32 µM; in test [2], 20.5 µM; in test [3], 28.4 µM; in test [4] it was 16 µM; in test [5] it was 33.4 µM; in test [6], 16.9 µM. Besides, the TGI in test [7] was 29 µM; in [8], more than 51.4 µM; in [9], 26.6 µM; in test [10], 27.1 µM.

Consider `COc1cc(N2CCC(N3CCN(C)CC3)CC2)ccc1Nc1ncc(Cl)c(Nc2ccccc2P(C)(C)=O)n1`, for which the GI50 is 38.8 µM in [1]; 2.97 µM in test [2]; 0.381 µM in test [3]; 2.1 µM in test [4]; 3.89 µM in [5]; 2.69 µM in test [6]. For the same compound, the GI50 in test [7] was 1.34 µM; in test [8], 3.45 µM; in [9] it was 1.62 µM; in test [10] it was 1.71 µM. The TGI was more than 100 µM in [1]; more than 40.4 µM in test [2]; 2.08 µM in [3]; 7.5 µM in test [4]; 39.8 µM in [5]; more than 100 µM in [6]. Also, the TGI in test [7] is 14 µM; in test [8], more than 100 µM; in test [9], more than 100 µM; in test [10], 19.6 µM.
